Results from ChEMBL document CHEMBL3244230, “Synthesis and gastric antisecretory properties of 15-deoxy-16-hydroxyprostaglandin E analogues” (1977).
The source made the active and inactive calls. The rule behind the calls is not given here.

What was measured:
[1] = test system: Canis familiaris; assay: Gastric antisecretory activity in iv dosed Mongrel dog with heidenhain pouch assessed as inhibition of histamine-induced total acid output by titrimetric method; assay type: functional; conditions: Canis lupus familiaris, read-out: ID50 (the source's name)
[2] = test system: Canis familiaris; assay: Gastric antisecretory activity in Mongrel dog with heidenhain pouch assessed as inhibition of histamine-induced total acid output at 0.1 to 100 ug/kg, iv by titrimetric method relative to PGE1; assay type: functional, Canis lupus familiaris
[3] = test system: Canis familiaris; assay: Gastric antisecretory activity in Mongrel dog with heidenhain pouch assessed as inhibition of histamine-induced total acid output at 30 ug/kg, iv by titrimetric method; assay type: functional, organism-based; conditions: Canis lupus familiaris

Row | Structure (SMILES) | ED50 [1] [µg/kg] | fold change (FC) [2] | inhibition [3]
1 | CCCCCC(C)(O)C/C=C/[C@H]1[C@H](O)CC(=O)[C@@H]1CCCCCCC(=O)OC (mixture of isomers) | 0.31 | 19.9 | –
2 | CCCCC(O)(CC)C/C=C/[C@H]1[C@H](O)CC(=O)[C@@H]1CCCCCCC(=O)OC (mixture of isomers) | 27.8 | 0.21 | –
3 | CCCCC(C)(O)C/C=C/[C@H]1[C@H](O)CC(=O)[C@@H]1CCCCCCC(=O)OC (mixture of isomers) [MISOPROSTOL] | 0.16 | 47.8 | –
4 | CCCCC[C@H](O)/C=C/[C@H]1[C@H](O)CC(=O)[C@@H]1CCCCCCC(=O)OC | 3.8 | 2.3 | –
5 | CCCCC(O)C/C=C/[C@H]1[C@H](O)CC(=O)[C@@H]1CCCCCCC(=O)OC (mixture of isomers) | 5.4 | 0.7 | –
6 | CCCCC(O)C/C=C/[C@H]1[C@H](O)CC(=O)[C@@H]1C/C=C\CCCC(=O)OC (mixture of isomers) | 4.1 | 1.9 | –
7 | CCCCC(O)C(C)(C)/C=C/[C@H]1[C@H](O)CC(=O)[C@@H]1CCCCCCC(=O)OC (mixture of isomers) | 140 | 0.05 | –
8 | CCCC(C)(C)C(O)C/C=C/[C@H]1[C@H](O)CC(=O)[C@@H]1CCCCCCC(=O)OC (mixture of isomers) | – | – | inactive
9 | CCCCC(C)(O)C/C=C/[C@H]1[C@@H](O)CC(=O)[C@@H]1CCCCCCC(=O)OC (mixture of isomers) | 16.9 | 0.21 | –
10 | CCCCC(C)(O)CCC[C@H]1[C@H](O)CC(=O)[C@@H]1CCCCCCC(=O)OC (mixture of isomers) | 5.9 | 0.98 | –
11 | CCCCC(C)(O)C/C=C/[C@H]1[C@H](O)CC(=O)[C@@H]1C/C=C\CCCC(=O)OC (mixture of isomers) | 0.3 | 24.9 | –
12 | CCCCC(C)(O)C/C=C/[C@H]1CCC(=O)[C@@H]1CCCCCCC(=O)O (mixture of isomers) | 4.3 | 1.5 | –
13 | CCCCC[C@H](O)/C=C/[C@H]1[C@H](O)CC(=O)[C@@H]1CCCCCCC(=O)O [ALPROSTADIL] | 6.7 | – | –
14 | CCCCC(C)(O)C/C=C\[C@H]1[C@H](O)CC(=O)[C@@H]1CCCCCCC(=O)OC (mixture of isomers) | 39.8 | 0.17 | –
